# Where two headings read alike, the source gives them in different places.
# How the values were obtained:
# [1] = molecular target: T1, S2R (Rattus norvegicus, UniProt Q5U3Y7); conditions: [3H]-DTG, rat liver, masking with (+)-Pentazocine, cited from earlier work
# T1 construct: [^3H]-DTG on rat liver masking with ( +)-Pentazocine according to the generally accepted protocol; from tissue; host or cells: rat liver
# T1 sequence (Q5U3Y7 1-176): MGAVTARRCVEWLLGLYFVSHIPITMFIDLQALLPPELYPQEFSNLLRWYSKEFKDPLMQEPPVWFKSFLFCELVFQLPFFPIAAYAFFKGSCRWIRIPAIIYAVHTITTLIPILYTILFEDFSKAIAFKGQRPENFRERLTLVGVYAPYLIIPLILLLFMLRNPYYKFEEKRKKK
# [2] = test system: SARS-CoV-2; assay: Anti-SARS-CoV-2 activity, detection of viral genomes by RT-qPCR on infected cells; type: cell-based; conditions: for anti-SARS-CoV-2 activity in words: Vero E6 cells; for fold reduction in anti-SARS-CoV-2 activity: relative to PB28, Vero E6 cells
# [3] = molecular target: T2, S1R (Cavia porcellus, UniProt Q60492); conditions: cited from earlier work
# T2 construct: [^3H]-( +)-Pentazocine on guinea pig brain according to the generally accepted protocol; from tissue; host or cells: guinea pig brain
# T2 sequence (Q60492 whole entry): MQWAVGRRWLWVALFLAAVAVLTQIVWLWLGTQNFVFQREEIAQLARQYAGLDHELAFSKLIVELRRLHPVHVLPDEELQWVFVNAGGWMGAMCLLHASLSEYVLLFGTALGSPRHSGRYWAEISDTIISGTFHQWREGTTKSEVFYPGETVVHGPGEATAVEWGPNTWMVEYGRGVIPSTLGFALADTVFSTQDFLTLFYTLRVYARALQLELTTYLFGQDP
# [4] = molecular target: T2, S1R; assay: S1R radioligand binding assay, [3H]-(+)-Pentazocine on guinea pig brain; conditions: Table 1, compound 6 (no reference cited)
# [5] = molecular target: T1, S2R; assay: S2R radioligand binding assay, [3H]-DTG on rat liver masking with (+)-Pentazocine; conditions: Table 1, compound 6 (no reference cited)
# [6] = test system: SARS-CoV-2; conditions: read-out: IC90 anti-SARS-CoV-2 activity in vitro; cited from earlier work
# [7] = Table 1, mean of three experiments in duplicate
# [8] = Table 1, RT-qPCR of viral genomes, Vero E6 cells infected with SARS-CoV-2, one representative experiment of at least three
# [9] = Table 1, [3H]-(+)-Pentazocine, guinea pig brain, mean of three experiments in duplicate, read-out: Ki nM S1R
# [10] = Table 1, RT-qPCR of viral genomes, Vero E6 cells infected with SARS-CoV-2, one representative experiment of at least three, read-out: IC50 (μM) SARS-CoV-2
# [11] = Table 3, RT-qPCR of viral genomes, Vero E6 cells infected with SARS-CoV-2, read-out: IC50 (μM) SARS-CoV-2
# [12] = Table 3, [3H]-(+)-Pentazocine, guinea pig brain, read-out: Ki nM S1R
# [13] = Table 4, RT-qPCR of viral genomes, Vero E6 cells infected with SARS-CoV-2
# [14] = Table 4, [3H]-(+)-Pentazocine, guinea pig brain, read-out: Ki Nm S1R
SMILES,"Ki [1, 7] [nM]",anti-SARS-CoV-2 activity in words [2],"Ki [3, 9] [nM]","IC50 [2, 10] [µM]",also measured
COc1cccc2c1CCCC2N1CCN(C2CCCCC2)CC1 (racemic) [Compound 1],7.9,loss of activity,0.4,–,"IC50 (μM) SARS-CoV-2 [2, 8]: NOT ACTIVE"
COc1cccc2c1CCCC2CN1CCN(C2CCCCC2)CC1 (racemic) [Compound 2],16.4,–,0.31,5.9,fold reduction in anti-SARS-CoV-2 activity [2]: 20 fold
COc1cccc2c1CCCC2CCN1CCN(C2CCCCC2)CC1 (racemic) [Compound 3],21.1,–,1.57,12.6,fold reduction in anti-SARS-CoV-2 activity [2]: 40 fold
COc1cccc2c1CCCC2CCCCN1CCN(C2CCCCC2)CC1 (racemic) [Compound 4],3.58,–,–,0.32,–
COc1cccc2c1CCCC2CCCCCN1CCN(C2CCCCC2)CC1 (racemic) [Compound 5],0.35,–,1.52,0.19,–
COc1cccc2c1CCCC2CCCCCCN1CCN(C2CCCCC2)CC1 (racemic) [Compound 6],–,–,–,1.32,fold reduction in anti-SARS-CoV-2 activity [2]: threefold less potent; Ki [4]: 3.07 nM; Ki [5]: 103 nM
c1ccc2c(c1)CCCC2CCCN1CCN(C2CCCCC2)CC1 (racemic) [Compound 7],0.68,–,0.61,0.438,–
c1ccc2c(c1)CCCC2CCCCN1CCN(C2CCCCC2)CC1 (racemic) [Compound 8],14.6,–,–,0.317,–
c1ccc2c(c1)CCCC2CCCCCN1CCN(C2CCCCC2)CC1 (racemic) [Compound 9],7.85,–,1.45,0.19,–
COc1ccc2c(c1)CCCC2CCCN1CCN(C2CCCCC2)CC1 (racemic) [Compound 10],5.42,–,0.36,0.47,"Ki ([3]; as quoted in the text of the docking section, read-out: Ki (S1R)): 0.38 nM"
Oc1cccc2c1CCCC2CCCN1CCN(C2CCCCC2)CC1 (racemic) [Compound 15],2.66,complete loss of antiviral activity,–,–,"IC50 (μM) SARS-CoV-2 [2, 8]: NOT ACTIVE"
Oc1ccc2c(c1)CCCC2CCCN1CCN(C2CCCCC2)CC1 (racemic) [Compound 16],1.12,complete loss of antiviral activity,0.69,–,"IC50 (μM) SARS-CoV-2 [2, 8]: NOT ACTIVE"
COc1cccc2c1CCCC2CCCN1CCN(C)CC1 (racemic) [Compound 23],–,–,–,–,"Ki ([1]; Table 3): 663 nM; IC50 [2, 11]: 5.78 µM; fold reduction in anti-SARS-CoV-2 activity [2]: 20 fold; Ki [3, 12]: 17.8 nM"
CCCN1CCN(CCCC2CCCc3c(OC)cccc32)CC1 (racemic) [Compound 24],–,–,–,–,"Ki ([1]; Table 3): 42.5 nM; IC50 [2, 11]: 2.26 µM; fold reduction in anti-SARS-CoV-2 activity [2]: 8 fold; Ki [3, 12]: 9.6 nM"
CCC(CC)N1CCN(CCCC2CCCc3c(OC)cccc32)CC1 (racemic) [Compound 25],–,no anti-SARS-CoV-2 activity,–,–,"Ki ([1]; Table 3): 12.7 nM; IC50 (μM) SARS-CoV-2 ([2]; Table 3, RT-qPCR of viral genomes, Vero E6 cells infected with SARS-CoV-2): NOT ACTIVE; Ki [3, 12]: 12 nM"
COc1cccc2c1CCC[C@H]2CCCN1CCN(C2CCCCC2)CC1 [( +)-S-PB28],1.18,–,–,0.455,–
COc1cccc2c1CCC[C@@H]2CCCN1CCN(C2CCCCC2)CC1 [(-)-R-PB28],0.49,–,–,0.309,–
c1ccc2c(CCCN3CCN(C4CCCCC4)CC3)cccc2c1 [Compound 11],0.69,–,2.16,0.94,–
c1ccc2c(CCCCCN3CCN(C4CCCCC4)CC3)cccc2c1 [Compound 12],0.57,–,2.4,0.52,–
COc1cccc2c(CCCN3CCN(C4CCCCC4)CC3)cccc12 [Compound 13],9.24,–,–,0.306,–
COc1ccc2c(CCCN3CCN(C4CCCCC4)CC3)cccc2c1 [Compound 14],9.02,complete loss of activity,3.16,–,"IC50 (μM) SARS-CoV-2 [2, 8]: NOT ACTIVE"
Oc1ccc2c(CCCN3CCN(C4CCCCC4)CC3)cccc2c1 [Compound 17],26.4,complete loss of antiviral activity,6.78,–,"IC50 (μM) SARS-CoV-2 [2, 8]: NOT ACTIVE"
Oc1ccc2cccc(CCCN3CCN(C4CCCCC4)CC3)c2c1 [Compound 18],11.8,complete loss of antiviral activity,5.48,–,"IC50 (μM) SARS-CoV-2 [2, 8]: NOT ACTIVE"
"COc1cccc2c1CCCC2CCCN1CCN(C2CCCCC2)CC1 (centres unmarked) [PB28, 1-Cyclohexyl-4-[3-(5-methoxy-1,2,3,4-tetrahydronaphthalen-1-yl)propyl]piperazine, reference compound]",–,–,–,–,"IC50 ([2]; Severe acute respiratory syndrome coronavirus 2, Vero C1008, read-out: IC50 (μM) SARS-CoV-2): 0.299 µM; IC90 [6]: 280 nM"
"COc1ccc2c(c1)CCCC2CCCCN1CCC(C)CC1 (centres unmarked) [PB190, reference compound]",–,did not demonstrate any antiviral effect,–,–,"Ki ([1]; Table 4): 36.3 nM; IC50 (μM) SARS-CoV-2 [2, 13]: NOT ACTIVE; Ki [3, 14]: 0.42 nM"
"COc1ccc2c(CCCCN3CCC(C)CC3)cccc2c1 [PB212, reference compound]",–,did not demonstrate any antiviral effect,–,–,"Ki ([1]; Table 4): 17.9 nM; IC50 (μM) SARS-CoV-2 [2, 13]: NOT ACTIVE; Ki [3, 14]: 0.03 nM"
